Laboratory results as given in the NIST ThermoML archive (doi:10.1021/je900550v).
Numbers after ± are expanded uncertainties.

Details: 101.33 kPa, Liquid; for speed of sound: Pulse-echo method; for mass density: Vibrating tube method

CCCC(=O)[O-].C[NH2+]CCO [N-methyl-2-hydroxyethylammonium butanoate]
Details	mass density [kg/m3]	speed of sound [m/s]	viscosity [mPa·s]
278.15 K	1052.71 ± 2.2	1683.5 ± 2.2	–
278.4 K	1052.55 ± 2.2	1682.5 ± 2.2	–
278.65 K	1052.38 ± 2.2	1681.5 ± 2.2	–
278.9 K	1052.21 ± 2.2	1680.6 ± 2.2	–
279.15 K	1052.04 ± 2.2	1679.6 ± 2.2	–
279.4 K	1051.88 ± 2.2	1678.7 ± 2.2	–
279.65 K	1051.71 ± 2.2	1677.7 ± 2.2	–
279.9 K	1051.54 ± 2.2	1676.8 ± 2.2	–
280.15 K	1051.38 ± 2.2	1675.8 ± 2.2	–
280.4 K	1051.21 ± 2.2	1674.8 ± 2.2	–
280.65 K	1051.04 ± 2.2	1673.9 ± 2.2	–
280.9 K	1050.88 ± 2.2	1673 ± 2.2	–
281.15 K	1050.71 ± 2.2	1672 ± 2.2	–
281.4 K	1050.54 ± 2.2	1671.1 ± 2.2	–
281.65 K	1050.38 ± 2.2	1670.1 ± 2.2	–
281.9 K	1050.21 ± 2.2	1669.2 ± 2.2	–
282.15 K	1050.02 ± 2.2	1668.4 ± 2.2	–
282.4 K	1049.85 ± 2.2	1667.4 ± 2.2	–
282.65 K	1049.69 ± 2.2	1666.6 ± 2.2	–
282.9 K	1049.52 ± 2.2	1665.7 ± 2.2	–
283.15 K	1049.35 ± 2.2	1664.8 ± 2.2	–
283.4 K	1049.19 ± 2.2	1663.8 ± 2.2	–
283.65 K	1049.02 ± 2.2	1663 ± 2.1	–
283.9 K	1048.85 ± 2.2	1662.1 ± 2.1	–
284.15 K	1048.68 ± 2.2	1661.2 ± 2.1	–
284.4 K	1048.52 ± 2.2	1660.3 ± 2.1	–
284.65 K	1048.35 ± 2.2	1659.4 ± 2.1	–
284.9 K	1048.18 ± 2.2	1658.5 ± 2.1	–
285.15 K	1048.02 ± 2.2	1657.7 ± 2.1	–
285.4 K	1047.85 ± 2.2	1656.8 ± 2.1	–
285.65 K	1047.68 ± 2.2	1655.9 ± 2.1	–
285.9 K	1047.52 ± 2.2	1655 ± 2.1	–
286.15 K	1047.35 ± 2.2	1654.2 ± 2.1	–
286.4 K	1047.18 ± 2.2	1653.3 ± 2.1	–
286.65 K	1047.01 ± 2.2	1652.4 ± 2.1	–
286.9 K	1046.85 ± 2.2	1651.6 ± 2.1	–
287.15 K	1046.68 ± 2.2	1650.7 ± 2.1	–
287.4 K	1046.51 ± 2.2	1649.9 ± 2.1	–
287.65 K	1046.34 ± 2.2	1649 ± 2.1	–
287.9 K	1046.17 ± 2.2	1648.1 ± 2.1	–
288.15 K	1046.01 ± 2.2	1647.3 ± 2.1	609.15 ± 100
288.4 K	1045.84 ± 2.2	1646.5 ± 2.1	–
288.65 K	1045.67 ± 2.2	1645.6 ± 2.1	–
288.9 K	1045.5 ± 2.2	1644.8 ± 2.1	–
289.15 K	1045.34 ± 2.2	1643.9 ± 2.1	–
289.4 K	1045.17 ± 2.2	1643 ± 2.1	–
289.65 K	1045 ± 2.2	1642.2 ± 2.1	–
289.9 K	1044.83 ± 2.2	1641.4 ± 2.1	–
290.15 K	1044.66 ± 2.2	1640.5 ± 2.1	516.28 ± 82
290.4 K	1044.5 ± 2.2	1639.7 ± 2.1	–
290.65 K	1044.33 ± 2.2	1638.9 ± 2.1	–
290.9 K	1044.16 ± 2.2	1638 ± 2.1	–
291.15 K	1043.99 ± 2.2	1637.2 ± 2.1	–
291.4 K	1043.82 ± 2.2	1636.3 ± 2.1	–
291.65 K	1043.65 ± 2.2	1635.5 ± 2.1	–
291.9 K	1043.48 ± 2.2	1634.7 ± 2.1	–
292.15 K	1043.32 ± 2.2	1633.9 ± 2.1	–
292.4 K	1043.15 ± 2.2	1633.1 ± 2.1	–
292.65 K	1042.98 ± 2.2	1632.3 ± 2.1	–
292.9 K	1042.81 ± 2.2	1631.5 ± 2.1	–
293.15 K	1042.64 ± 2.2	1630.6 ± 2.1	433.8 ± 64
293.4 K	1042.47 ± 2.2	1629.8 ± 2.1	–
293.65 K	1042.3 ± 2.2	1629 ± 2.1	–
293.9 K	1042.13 ± 2.2	1628.2 ± 2.1	–
294.15 K	1041.96 ± 2.2	1627.4 ± 2.1	–
294.4 K	1041.79 ± 2.2	1626.6 ± 2.1	–
294.65 K	1041.63 ± 2.2	1625.7 ± 2.1	–
294.9 K	1041.45 ± 2.2	1624.9 ± 2.1	–
295.15 K	1041.29 ± 2.2	1624.1 ± 2.1	–
295.4 K	1041.12 ± 2.2	1623.3 ± 2.1	–
295.65 K	1040.95 ± 2.2	1622.5 ± 2.1	352.2 ± 47
295.9 K	1040.78 ± 2.2	1621.7 ± 2.1	–
296.15 K	1040.61 ± 2.2	1620.9 ± 2.1	–
296.4 K	1040.44 ± 2.2	1620.1 ± 2.1	–
296.65 K	1040.27 ± 2.2	1619.3 ± 2.1	–
296.9 K	1040.1 ± 2.2	1618.5 ± 2.1	–
297.15 K	1039.93 ± 2.2	1617.7 ± 2.1	–
297.4 K	1039.76 ± 2.2	1617 ± 2.1	–
297.65 K	1039.59 ± 2.2	1616.1 ± 2.1	–
297.9 K	1039.42 ± 2.2	1615.3 ± 2.1	–
298.15 K	1039.24 ± 2.2	1614.5 ± 2.1	298.95 ± 37
298.4 K	1039.08 ± 2.2	1613.8 ± 2.1	–
298.65 K	1038.9 ± 2.2	1613 ± 2.1	–
298.9 K	1038.73 ± 2.2	1612.2 ± 2.1	–
299.15 K	1038.56 ± 2.2	1611.4 ± 2.1	–
299.4 K	1038.39 ± 2.2	1610.6 ± 2.1	–
299.65 K	1038.22 ± 2.2	1609.8 ± 2.1	–
299.9 K	1038.05 ± 2.2	1609 ± 2.1	–
300.15 K	1037.88 ± 2.2	1608.2 ± 2.1	–
300.4 K	1037.71 ± 2.2	1607.4 ± 2.1	–
300.65 K	1037.54 ± 2.2	1606.6 ± 2.1	256.7 ± 29
300.9 K	1037.37 ± 2.2	1605.8 ± 2.1	–
301.15 K	1037.2 ± 2.2	1605 ± 2.1	–
301.4 K	1037.03 ± 2.2	1604.2 ± 2.1	–
301.65 K	1036.87 ± 2.2	1603.4 ± 2.1	–
301.9 K	1036.7 ± 2.2	1602.6 ± 2.1	–
302.15 K	1036.54 ± 2.2	1601.8 ± 2.1	–
302.4 K	1036.38 ± 2.2	1601 ± 2.1	–
302.65 K	1036.2 ± 2.2	1600.2 ± 2.1	–
302.9 K	1036.04 ± 2.2	1599.5 ± 2.1	–
303.15 K	1035.87 ± 2.2	1598.7 ± 2.1	219.16 ± 22
303.4 K	1035.71 ± 2.2	1597.9 ± 2.1	–
303.65 K	1035.54 ± 2.2	1597.1 ± 2.1	–
303.9 K	1035.38 ± 2.2	1596.3 ± 2.1	–
304.15 K	1035.21 ± 2.2	1595.5 ± 2.1	–
304.4 K	1035.04 ± 2.2	1594.8 ± 2.1	–
304.65 K	1034.88 ± 2.2	1594 ± 2.1	–
304.91 K	1034.71 ± 2.2	1593.2 ± 2.1	–
305.15 K	1034.54 ± 2.2	1592.4 ± 2.1	–
305.4 K	1034.38 ± 2.2	1591.6 ± 2.1	–
305.45 K	–	–	186.26 ± 17
305.65 K	1034.21 ± 2.2	1590.8 ± 2.1	–
305.9 K	1034.04 ± 2.2	1590.1 ± 2.1	–
306.15 K	1033.88 ± 2.2	1589.3 ± 2.1	–
306.4 K	1033.71 ± 2.2	1588.5 ± 2.1	–
306.65 K	1033.54 ± 2.2	1587.7 ± 2.1	–
306.9 K	1033.38 ± 2.2	1587 ± 2.1	–
307.15 K	1033.2 ± 2.2	1586.2 ± 2.1	–
307.4 K	1033.04 ± 2.2	1585.4 ± 2.1	–
307.65 K	1032.87 ± 2.2	1584.6 ± 2.1	–
307.9 K	1032.7 ± 2.2	1583.8 ± 2.1	–
